Columns and labels:
[1] = tested on: Orlando insecticide-susceptible strain of Ae. aegypti (female mosquitoes); test: Glass tube spatial repellency assay; type: in vivo, Aedes aegypti; settings: for mortality in repellency screening: 100 μg/cm^2, 1 hr exposure
Method: (§1) The following assay was conducted according to the procedures of Jiang et al., 2019 (Jiang S., Yang L, and Bloomquist J (2019) High-throughput screening method for evaluating spatial repellency and vapor toxicity to mosquitoes. Med. Vet. Entomol.). For assessing behavioral repellency (FIG. 1), sixteen female Aedes aegypti mosquitoes were transferred to a glass tube (12.5 cm long, 2.5 cm outer diameter) with the ends covered with netting. Metofluthrin, bifenthrin, permethrin, pyrethrum, transfluthrin, deltamethrin, esfenvalerate, metofluthrin acid, bifenthrin acid, phenothrin acid, transchryanthemic acid, transfluthrin acid, deltamethrin acid, and fenvalerate acid were each dissolved in 1 mL of acetone and serial dilutions ranging from 30-0.01 μg/ml were made. Circular filter papers (5 cm^2) were saturated with 50 μL of each concentration and allowed 10 min for solvent evaporation. The filter papers were then placed in clear conical polypropylene caps and fixed to the end of the glass tubes. The netting prevented mosquito contact with the filter paper. Tubes were then aligned with a mark denoting the midline and the proportion of mosquitoes on the chemically treated side was scored at 15, 30, and 60 min. At the end of the test, the tube was placed in a cage and the ability of the mosquitoes to fly out of the tube was assessed for 30 min. […] This post-test evaluated whether any non-responding mosquitoes (not repelled) was due to intoxication or disorientation from the test chemical. For vapor toxicity, the assay was identical, except that mosquitoes were kept in the tube for 24 hr without the post-test at 1 hr, and the mortality was recorded at 24 hr.

[2] = tested on: pyrethroid-resistant Puerto Rico (PR) strain of Ae. aegypti; test: Glass tube spatial repellency assay, resistant strain; type: in vivo, Aedes aegypti; settings: repellency resistance ratio; compound alone
Method: as §1
EC50 values were calculated from non-linear regression to a four parameter logistic equation (Prism, GraphPad Software, San Diego, Calif.) of the curves shown in FIG. 4. RR=resistance ratio. NA=data not yet available.

[3] = tested on: insecticide-susceptible Aedes aegypti (Orlando strain) females; test: Glass tube vapor toxicity assay (24 hr mortality); settings: for LC50 (24 h vapor toxicity): pyrethroid alone
Method: as §1
Synergism ratio (SR)=LC50 pyrethroid/LC50 pyrethroid+EO.

[4] = tested on: pyrethroid-resistant Puerto Rico strain of Ae. aegypti; test: Glass tube vapor toxicity assay, resistant strain; type: in vivo, Aedes aegypti
From the text: The netting prevented mosquito contact with the filter paper.
The vapor toxicity of metofluthrin alone and in combination with citronella oil (CO) on susceptible Orlando and pyrethroid-resistant Puerto Rico strains of Ae. aegypti was investigated. The results are provided in Table 10 and in FIGS. 26 and 27. […] Synergism ratio (SR)=LC50 metofluthrin/LC50 metofluthrin+citronella. […] Resistance ratio (RR)=LC50 metofluthrin[…] on Puerto Rico/LC50 metofluthrin on Orlando.
Next, the vapor toxicity of empenthrin applied to two strains of Aedes aegypti, the pyrethroid-susceptible Orlando and pyrethroid-resistant Puerto Rico strain, was investigated. Empenthrin was applied alone and in combination with citronella oil (100 μg/cm^2, a nontoxic exposure). The RR for empenthrin alone was 5.7-fold.

[5] = tested on: OR (susceptible) strain of Ae. aegypti antenna; test: Electroantennography (EAG) responses, OR strain; set-up: species or system Aedes aegypti; settings: 10 mg odorant, air puff
From the text: (§2) Electroantennography (EAG) responses of OR (susceptible) and PR (resistant) strains of Ae. Aegypti were then obtained for TF, TFA, and TCA (FIGS. 10A and 10B). In these experiments, an air puff stimulus with odorant was blown over an antenna suspended between 2 electrodes and represented the summed electrical response of all the chemo-receptive hairs. All compounds gave responses, with TF the largest (FIG. 10A).

[6] = tested on: PR (resistant) strain of Ae. aegypti antenna; test: Electroantennography (EAG) responses, PR strain; set-up: species or system Aedes aegypti; settings: 10 mg odorant, air puff
From the text: as §2

Compound | mortality in repellency screening [1] | RR (PR EC50/OR EC50) [2] | synergism ratio of vapor toxicity, +citronella ([3]; in vivo) | LC50 (24 h vapor toxicity) [3] | LC50 +citronella ([3]; with citronella, 24 h) | resistance ratio RR, vapor toxicity, +citronella oil ([4]; LC50 metofluthrin+CO on Puerto Rico/LC50 metofluthrin on Orlando) | resistance ratio RR, vapor toxicity ([4]; pyrethroid alone, Puerto Rico vs Orlando) | repellency EC50 (+TFA) ([1]; applied as mixture with TFA (50 μg/cm^2), 1 hr) | synergism of repellency with citronella ([1]; citronella at its EC20 (20 μg/cm^2)) | repellency EC50 ([1]; compound alone, 1 hr) | synergist ratio SR (EC50 compound alone/EC50 compound+TFA) ([1]; repellency, TFA 50 μg/cm^2 as mixture) | synergism ratio of vapor toxicity, +TFA ([3]; TFA 50 μg/cm^2) | LC50 +TFA ([3]; with TFA (50 μg/cm^2), 24 h) | EAG response [5] | EAG response in PR strain relative to OR [6]
C/C=C/C1C(C(=O)OCc2c(F)c(F)c(COC)c(F)c2F)C1(C)C (stereo not drawn) [Metofluthrin, reference compound] | significant mortality | 60 | 7.6 | 0.84 μg/cm^2 | 0.11 μg/cm^2 | 7.3 | 50.7 | – | – | – | – | – | – | – | –
CC1(C)[C@H](C=C(Cl)Cl)[C@H]1C(=O)OCc1c(F)c(F)cc(F)c1F [Transfluthrin, reference compound] | significant mortality | 4.7 | – | 0.16 μg/cm^2 | – | – | – | 0.11 μg/cm^2 | not | 0.5 μg/cm^2 | about 5 | 2.3 | 0.07 μg/cm^2 | largest | reduced

Source: patent publication US20220304307A1, “SYNERGISTIC MIXTURES FOR ARTHROPOD TOXICITY AND REPELLENCY” (University of Florida Research Foundation, Incorporated, priority 2019, published 2022)
